Key:
AKT1 = AKT1 (Homo sapiens, UniProt P31749); assay: AKT1 enzymatic inhibition assay (HTRF KinEASE); format: biochemical; conditions: read-out: AKT1 pIC50 (converted)
Protocol: (§1) The IC50 values of Example compounds of the invention for AKT1, AKT2 and AKT3 were measured using HTRF (Homogeneous Time Resolved Fluorescence) KinEASE assays (62ST3PEB—1000 tests or 62ST3PEC—20,000 tests) from cisbio.com, according to manufacturer's instructions.

AKT2 = AKT2 (Homo sapiens, UniProt P31751); assay: AKT2 enzymatic inhibition assay (HTRF KinEASE); format: biochemical; conditions: read-out: AKT2 pIC50 (converted)
Chain of AKT2 (P31751 152-409 limits assumed): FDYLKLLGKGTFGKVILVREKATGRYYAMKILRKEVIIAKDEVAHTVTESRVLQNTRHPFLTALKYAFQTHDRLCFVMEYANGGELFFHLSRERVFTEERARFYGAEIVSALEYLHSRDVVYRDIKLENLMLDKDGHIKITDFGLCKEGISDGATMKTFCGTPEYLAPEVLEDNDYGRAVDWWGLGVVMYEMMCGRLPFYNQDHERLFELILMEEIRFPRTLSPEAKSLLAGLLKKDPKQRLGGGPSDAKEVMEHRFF
Protocol: as §1

PEO4 cells [1] = assay: Relative re-sensitisation ratio of apoptosis induction (caspase 3/7 normalised to MTT) with cisplatin; format: cell-based; conditions: compound at 20 μM, triciribine at 25 μM, cisplatin 25 μM, 24 h
Protocol: Cell viability was determined for different assays (as described in FIGS. 1 and 2, Table 5) in optically clear 96 well plates using the standard 3-(4, 5-dimethylthiazol-2-yl)-2, 5-diphenyl tetrazolium bromide (MTT) assay, which is a colorimetric method for determining the number of metabolically active cells in cytotoxicity assays. MTT is bioreduced by mitochondrial dehydrogenase enzymes into a coloured solid formazan product. MTT reagent (Sigma, UK) was initially prepared by dissolving in PBS at a concentration of 3 mg/ml. Following relevant drug treatments at different time points and cell lines (described in results section and FIGS. 1 and 2), MTT reagent was added to each experimental well at a final concentration of 0.5 mg/ml. After incubation for 3 h at 37° C. 5% CO2, an equal volume of stop solution (10% SDS in 0.01% HCl) was added and formed formazan crystals were allowed to dissolve shaking overnight. The following day, the optical density was read at 570 nm and analysis performed as per each assay type.
(§2) The caspase 3/7 activity of cells following treatment with inhibitor compounds or vehicle (DMSO) was determined using the Caspase-Glo® 3/7 Assay (Catalogue number G8093, Promega, US) according to manufacturer's instructions. Briefly, 10,000 cells per well for PEO1 and PEO4 cell lines or 5000 cells per well for SKOV3 cell line were grown in 96 well plates in a final volume of 50 μl and following relevant drug treatment of cells (example compound±cisplatin, comparative example compound±cisplatin, or vehicle±cisplatin) for 24 hours, an equal volume of Caspase-Glo® Reagent containing a luminogenic substrate for Caspase 3 and Caspase 7 was added i.e. if cells cultured in 50 μl of media, 50 μl of caspase reagent was added. After 1 h incubation at room temperature in the dark, the luminescence of each sample was measured in a plate-reading luminometer (LUMIstar OPTIMA, BMG Labtech, Germany). Caspase 3/7 activity data was normalised to corresponding viability data from MTT and analysis was performed according to each experimental set-up.
. Apoptosis (caspase 3/7) and viability (MTT) assays were carried out as described for each assay protocols and the phenotypic apoptosis assays above. Relative apoptosis induction was inferred from caspase 3/7 assay values normalised to the standard MTT viability assay values of each corresponding well. […]

DNA-PK = DNA-PK (Homo sapiens, UniProt P78527); assay: DNA-PK enzymatic inhibition assay (HTRF KinEASE); format: biochemical; conditions: read-out: DNA-PK pIC50 (converted)
Protocol: The IC50 values of Example compounds of the invention for DNA-PK were measured using the HTRF KinEASE assay as described above.

AKT3 = AKT3 (Homo sapiens, UniProt Q9Y243); assay: AKT3 enzymatic inhibition assay (HTRF KinEASE); format: biochemical; conditions: read-out: AKT3 pIC50 (converted)
Chain of AKT3 (Q9Y243 148-405 limits assumed): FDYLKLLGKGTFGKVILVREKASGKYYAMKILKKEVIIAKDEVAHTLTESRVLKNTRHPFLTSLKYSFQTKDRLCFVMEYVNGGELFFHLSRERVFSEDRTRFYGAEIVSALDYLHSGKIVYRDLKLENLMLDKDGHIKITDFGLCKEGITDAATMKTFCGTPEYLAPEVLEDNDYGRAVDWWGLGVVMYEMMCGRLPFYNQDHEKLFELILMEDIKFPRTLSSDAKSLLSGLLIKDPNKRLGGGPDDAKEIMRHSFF
Protocol: as §1

SKOV3 cells = assay: Phenotypic apoptosis assay (caspase 3/7 normalised to MTT) plus/minus cisplatin in SKOV3; format: cell-based; conditions: for activity in phenotypic in vitro apoptosis platinum re-sensitisation assays: inhibitor 6.67 μM + cisplatin 25 μM
Protocol: Data shown is n=3±s.e.m; ** p<0.01, * p<0.0^5.
(§3) MTT is bioreduced by mitochondrial dehydrogenase enzymes into a coloured solid formazan product. MTT reagent (Sigma, UK) was initially prepared by dissolving in PBS at a concentration of 3 mg/ml. […] After incubation for 3 h at 37° C. 5% CO2, an equal volume of stop solution (10% SDS in 0.01% HCl) was added and formed formazan crystals were allowed to dissolve shaking overnight. The following day, the optical density was read at 570 nm and analysis performed as per each assay type.
as §2
(§4) Phenotypic apoptosis assays were performed to determine the level of caspase 3/7 dependent apoptotic induction of each inhibitor compound in the presence or absence of cisplatin (cddp). PEO4 and SKOV3 cells were seeded out 24 hours prior to drug treatments. […] 5% CO2. […] Duplicate plates were set up for each experiment for caspase and MTT assays. Caspase and MTT assays were carried out according to the protocols described above.
(§5) Data shown in FIGS. 2A and 2B are n=3±s.e.m. Statistical significance was calculated using student t-test using GraphPad Prism software ** p<0.01, * p<0.05.

PEO4 cells [2] = assay: Phenotypic apoptosis assay (caspase 3/7 normalised to MTT) plus/minus cisplatin in PEO4; format: cell-based; conditions: 24 hours
Protocol: as §3, §2, §4, §5

[3] = tested on: platinum resistant cell line PEO4; assay: Isobologram (Loewe synergy/antagonism, MTT viability) with cisplatin in PEO4; format: cell-based; conditions: PEO4, 72 hours, MTT readout
Protocol: (§6) . Data shown is n=3. Decreasing negative numbers within each table indicate increasing levels of antagonism, increasing positive numbers indicate increasing levels of synergy between cisplatin and inhibitor compounds.
(§7) Cell viability was determined for different assays (as described in FIGS. 1 and 2, Table 5) in optically clear 96 well plates using the standard 3-(4, 5-dimethylthiazol-2-yl)-2, 5-diphenyl tetrazolium bromide (MTT) assay, which is a colorimetric method for determining the number of metabolically active cells in cytotoxicity assays. MTT is bioreduced by mitochondrial dehydrogenase enzymes into a coloured solid formazan product. […] The following day, the optical density was read at 570 nm and analysis performed as per each assay type.
(§8) All cell lines (PEO1, PEO4 and SKOV3) were seeded out 24 hours prior to treatment into 96 well plates at 10,000 cells per well in triplicate for each inhibitor compound. […] Following 72 hours incubation, cell viability was assessed using the MTT assay (n=3). IC50 values for each compound was determined using GraphPad Prism software, non-linear regression of log (inhibitor) versus response (three parameters). All isobologram assays used the standard MTT protocol as described above for assay readout. […] Following 72 h incubation, cell viability was assessed using MTT assays as described above. […]

[4] = tested on: platinum resistant epithelial ovarian cancer cell line SKOV3; assay: Isobologram (Loewe synergy/antagonism, MTT viability) with cisplatin in SKOV3; format: cell-based; conditions: SKOV3, 72 hours, MTT readout
Protocol: as §6, §7, §8

[5] = tested on: platinum sensitive cell line PEO1; assay: Isobologram (Loewe synergy/antagonism, MTT viability) with cisplatin in PEO1; format: cell-based; conditions: PEO1, 72 hours, MTT readout
Protocol: as §6, §7, §8

[6] = inhibitor 10 μM + cisplatin 25 μM
[7] = inhibitor 10 μM + cisplatin 25 μM, 24 hours

Chain of AKT1 (P31749 150-408 limits assumed): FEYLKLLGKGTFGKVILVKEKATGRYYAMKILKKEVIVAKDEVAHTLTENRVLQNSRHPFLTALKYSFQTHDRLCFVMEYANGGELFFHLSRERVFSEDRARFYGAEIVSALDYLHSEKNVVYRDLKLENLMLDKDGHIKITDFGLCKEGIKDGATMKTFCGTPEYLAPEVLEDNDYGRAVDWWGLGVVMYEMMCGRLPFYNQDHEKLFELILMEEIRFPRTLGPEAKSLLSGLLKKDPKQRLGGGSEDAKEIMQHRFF

| IC50 (AKT1) [nM] | IC50 (AKT2) [nM] | IC50 (DNA-PK) [nM] | IC50 (AKT3) [nM] | SMILES | Relative re-sensitisation ratio of apoptosis induction (caspase 3/7) relative to triciribine phosphate (PEO4 cells [1]) | activity in phenotypic in vitro apoptosis platinum re-sensitisation assays (SKOV3 cells) | apoptosis (re-sensitisation) in combination with cisplatin (PEO4 cells [2]; [6]) | apoptosis (re-sensitisation) in combination with cisplatin (SKOV3 cells; [7]) | other results |
| --- | --- | --- | --- | --- | --- | --- | --- | --- | --- |
| 0.575 | 1.41 | 0.158 | 0.219 | CN(C)CCNC(c1ccc(Cl)cc1)C1CCN(c2ncnc3[nH]nc(C(F)(F)F)c23)CC1 (single isomer, unassigned; (+)) [Example 12a, (+)-N^1-((4-chlorophenyl)(1-(3-(trifluoromethyl)-1H-pyrazolo[3,4-d]pyrimidin-4-yl)piperidin-4-yl)methyl)-N^2,N^2-dimethylethane-1,2-diamine] | 1.2 | active |  |  |  |
| 3.39 | 5.5 | 5.37 | 0.832 | CN(C)CCNC(c1ccc(Cl)cc1)C1CCN(c2ncnc3[nH]nc(C(F)(F)F)c23)CC1 (single isomer, unassigned; (-)) [Example 12b, (−)-N^1-((4-chlorophenyl)(1-(3-(trifluoromethyl)-1H-pyrazolo[3,4-d]pyrimidin-4-yl)piperidin-4-yl)methyl)-N^2,N^2-dimethylethane-1,2-diamine] | 1.0 | active |  |  |  |
|  |  |  |  | Cn1ncc(Cl)c1-c1cc(C(=O)N[C@H](CN)Cc2cccc(F)c2)sc1Cl [Afuresertib, N-[(2S)-1-amino-3-(3-fluorophenyl)propan-2-yl]-5-chloro-4-(4-chloro-2-methylpyrazol-3-yl)thiophene-2-carboxamide] |  |  | showed re-sensitisation | showed re-sensitisation |  |
| 0.324 | 0.55 | 0.24 | 0.112 | CN(C)CC(c1ccc(Cl)cc1)N1CCN(c2ncnc3[nH]nc(Br)c23)CC1 (centres unmarked) [Example 1, 2-[4-(3-bromo-1H-pyrazolo[3,4-d]pyrimidin-4-yl)piperazin-1-yl]-2-(4-chlorophenyl)-N,N-dimethyl-ethanamine] | 3.0 | active |  |  | synergy in combination with cisplatin (Loewe isobologram analysis) [3]: strong synergy; apoptosis (re-sensitisation) in combination with cisplatin compared to cisplatin alone (PEO4 cells [2]; inhibitor 2 μM + cisplatin 25 μM): statistically significant increases in apoptosis; synergy in combination with cisplatin (Loewe isobologram analysis) [4]: strong synergy; synergy in combination with cisplatin (Loewe isobologram analysis) [5]: superior synergy; apoptosis (re-sensitisation) in combination with cisplatin compared to cisplatin alone (SKOV3 cells; inhibitor 2 μM + cisplatin 25 μM, 24 hours): statistically significant increases in apoptosis |
| 5.75 | 10.5 | 3.89 | 3.63 | CN(C)CCOC(c1ccc(Cl)cc1)C1CCN(c2ncnc3[nH]nc(Br)c23)CC1 (centres unmarked) [Example 2, 2-((1-(3-bromo-1H-pyrazolo[3,4-d]pyrimidin-4-yl)piperidin-4-yl)(4-chlorophenyl)methoxy)-N,N-dimethylethan-1-amine] | 2.9 | active |  |  |  |
|  |  | 10.5 |  | CCn1c(-c2nonc2N)nc2c(C#CC(C)(C)O)ncc(OC[C@H]3CCCNC3)c21 [GSK-3g, 4-[2-(4-amino-1,2,5-oxadiazol-3-yl)-1-ethyl-7-[[(3S)-piperidin-3-yl]methoxy]imidazo[4,5-c]pyridin-4-yl]-2-methylbut-3-yn-2-ol, reference compound] |  | inactive |  |  |  |
|  |  |  |  | CC(C)NC[C@@H](C(=O)N1CCN(c2ncnc3c2[C@H](C)C[C@H]3O)CC1)c1ccc(Cl)cc1 [Ipatasertib, (2S)-2-(4-chlorophenyl)-1-[4-[(5R,7R)-7-hydroxy-5-methyl-6,7-dihydro-5H-cyclopenta[d]pyrimidin-4-yl]piperazin-1-yl]-3-(propan-2-ylamino)propan-1-one] |  |  |  |  | apoptosis (re-sensitisation) in combination with cisplatin (PEO4 cells [2]; inhibitor 20 μM + cisplatin 25 μM): showed re-sensitisation; apoptosis (re-sensitisation) in combination with cisplatin (SKOV3 cells; inhibitor 20 μM + cisplatin 25 μM, 24 hours): showed re-sensitisation |
|  |  |  |  | CO[C@@H](C)Cn1c(=O)n(C)c2cnc3ccc(-c4cncc(C(C)(C)O)c4)cc3c21 [LY3023414, 8-[5-(2-hydroxypropan-2-yl)pyridin-3-yl]-1-[(2S)-2-methoxypropyl]-3-methylimidazo[4,5-c]quinolin-2-one] |  |  | showed re-sensitisation | showed re-sensitisation |  |
|  |  |  |  | O=c1cc(N2CCOCC2)oc2c(-c3cccc4c3sc3ccccc34)cccc12 [NU7441, 8-dibenzothiophen-4-yl-2-morpholin-4-ylchromen-4-one] |  |  | showed re-sensitisation | showed re-sensitisation |  |
|  |  |  |  | Cn1ncc(Cl)c1-c1cc(C(=O)N[C@H](CN)Cc2ccc(F)c(F)c2)oc1Cl [Uprosertib, N-[(2S)-1-amino-3-(3,4-difluorophenyl)propan-2-yl]-5-chloro-4-(4-chloro-2-methylpyrazol-3-yl)furan-2-carboxamide] |  |  | showed re-sensitisation | showed re-sensitisation |  |
